Calls of active or inactive are those of the source. No cut-off for these calls is given here.
Legend:
[1] = system: T-24; test: Induction of alpha tubulin acetylation in human T24 cells after 3 hrs by ELISA; assay type: functional, cell-based; conditions: T-24, 3 h
[2] = biological target: Histone deacetylase 2 (Homo sapiens) (UniProt Q92769); test: Inhibition of human recombinant C-terminal FLAG-tagged HDAC2 expressed in baculovirus by fluorimetry
[3] = biological target: T1, Histone deacetylase 1 (Homo sapiens, UniProt Q13547); test: Inhibition of HDAC1 in human 293T cells after 16 hrs by fluorimetry; assay type: cell-based
T1 sequence (Q13547 whole entry): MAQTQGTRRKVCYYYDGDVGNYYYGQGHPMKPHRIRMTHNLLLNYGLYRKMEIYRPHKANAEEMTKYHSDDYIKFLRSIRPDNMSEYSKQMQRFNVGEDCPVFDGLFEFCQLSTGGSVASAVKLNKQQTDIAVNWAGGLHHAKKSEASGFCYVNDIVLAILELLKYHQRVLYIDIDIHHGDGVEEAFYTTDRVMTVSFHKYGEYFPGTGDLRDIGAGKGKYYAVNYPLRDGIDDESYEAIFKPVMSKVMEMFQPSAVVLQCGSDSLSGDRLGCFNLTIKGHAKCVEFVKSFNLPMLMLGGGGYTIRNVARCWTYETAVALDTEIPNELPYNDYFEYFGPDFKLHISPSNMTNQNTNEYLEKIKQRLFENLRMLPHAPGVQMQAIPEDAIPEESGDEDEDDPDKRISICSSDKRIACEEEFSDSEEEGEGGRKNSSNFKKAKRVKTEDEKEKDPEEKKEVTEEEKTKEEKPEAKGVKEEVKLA

[4] = biological target: T2, Protein deacetylase HDAC6 (Homo sapiens, UniProt Q9UBN7); test: Inhibition of human recombinant N-terminal histidine-tagged HDAC6 expressed in baculovirus by fluorimetry
T2 sequence (Q9UBN7 whole entry): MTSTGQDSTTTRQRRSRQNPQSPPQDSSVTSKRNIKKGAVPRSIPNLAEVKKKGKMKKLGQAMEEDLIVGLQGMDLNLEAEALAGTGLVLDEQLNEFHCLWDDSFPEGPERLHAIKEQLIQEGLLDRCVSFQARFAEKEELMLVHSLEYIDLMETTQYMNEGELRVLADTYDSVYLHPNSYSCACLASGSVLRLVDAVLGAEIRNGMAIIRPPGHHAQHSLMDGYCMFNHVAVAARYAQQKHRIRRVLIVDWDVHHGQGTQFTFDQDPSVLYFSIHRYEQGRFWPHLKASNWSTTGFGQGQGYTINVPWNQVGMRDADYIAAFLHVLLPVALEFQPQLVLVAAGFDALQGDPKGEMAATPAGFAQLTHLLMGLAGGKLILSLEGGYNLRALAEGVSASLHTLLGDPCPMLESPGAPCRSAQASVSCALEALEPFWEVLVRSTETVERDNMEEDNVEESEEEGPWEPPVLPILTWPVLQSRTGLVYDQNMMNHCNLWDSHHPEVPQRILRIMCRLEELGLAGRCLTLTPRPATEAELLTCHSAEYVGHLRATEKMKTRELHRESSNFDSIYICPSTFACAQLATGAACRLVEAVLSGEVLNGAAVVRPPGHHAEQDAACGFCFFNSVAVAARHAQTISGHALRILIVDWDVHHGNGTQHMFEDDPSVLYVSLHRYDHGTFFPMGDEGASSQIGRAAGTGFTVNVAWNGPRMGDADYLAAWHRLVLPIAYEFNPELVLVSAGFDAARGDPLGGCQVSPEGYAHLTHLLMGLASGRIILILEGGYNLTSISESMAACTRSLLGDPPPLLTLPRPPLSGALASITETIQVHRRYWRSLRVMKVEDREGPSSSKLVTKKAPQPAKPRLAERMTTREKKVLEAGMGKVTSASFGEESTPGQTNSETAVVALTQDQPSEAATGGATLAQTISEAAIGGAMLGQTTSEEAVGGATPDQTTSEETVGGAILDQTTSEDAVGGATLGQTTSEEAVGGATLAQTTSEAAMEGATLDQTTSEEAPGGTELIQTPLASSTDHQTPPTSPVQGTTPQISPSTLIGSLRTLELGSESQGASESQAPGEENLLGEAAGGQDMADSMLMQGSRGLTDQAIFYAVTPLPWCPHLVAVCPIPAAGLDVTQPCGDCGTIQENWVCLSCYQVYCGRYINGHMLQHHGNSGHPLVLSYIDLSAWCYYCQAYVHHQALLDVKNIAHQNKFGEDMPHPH

[5] = system: T-24; test: Induction of histone H3 acetylation in human T24 cells after 3 hrs by ELISA; assay type: functional, cell-based; conditions: T-24, 3 h
[6] = biological target: T1, Histone deacetylase 1; test: Inhibition of human recombinant C-terminal FLAG-tagged HDAC1 expressed in baculovirus by fluorimetry
[7] = biological target: Histone deacetylase 3 (Homo sapiens) (UniProt O15379); test: Inhibition of human recombinant C-terminal FLAG-tagged HDAC3 expressed in baculovirus by fluorimetry
Sequence of Histone deacetylase 3 (Homo sapiens) (O15379 whole entry): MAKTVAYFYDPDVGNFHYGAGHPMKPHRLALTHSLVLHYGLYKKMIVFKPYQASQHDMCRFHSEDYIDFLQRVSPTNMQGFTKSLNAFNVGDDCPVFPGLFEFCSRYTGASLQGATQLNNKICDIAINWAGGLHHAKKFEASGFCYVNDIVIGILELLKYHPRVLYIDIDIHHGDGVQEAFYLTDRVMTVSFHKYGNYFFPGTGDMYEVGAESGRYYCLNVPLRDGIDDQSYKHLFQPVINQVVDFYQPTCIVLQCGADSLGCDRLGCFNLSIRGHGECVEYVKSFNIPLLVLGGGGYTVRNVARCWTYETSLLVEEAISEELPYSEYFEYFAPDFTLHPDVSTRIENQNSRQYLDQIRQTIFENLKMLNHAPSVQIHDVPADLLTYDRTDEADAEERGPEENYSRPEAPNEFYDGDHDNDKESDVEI

[8] = biological target: T3, Histone deacetylase 8 (Homo sapiens) (UniProt Q9BY41); test: Inhibition of human recombinant N-terminal histidine-tagged HDAC8 expressed in baculovirus by fluorimetry
T3 sequence (whole entry): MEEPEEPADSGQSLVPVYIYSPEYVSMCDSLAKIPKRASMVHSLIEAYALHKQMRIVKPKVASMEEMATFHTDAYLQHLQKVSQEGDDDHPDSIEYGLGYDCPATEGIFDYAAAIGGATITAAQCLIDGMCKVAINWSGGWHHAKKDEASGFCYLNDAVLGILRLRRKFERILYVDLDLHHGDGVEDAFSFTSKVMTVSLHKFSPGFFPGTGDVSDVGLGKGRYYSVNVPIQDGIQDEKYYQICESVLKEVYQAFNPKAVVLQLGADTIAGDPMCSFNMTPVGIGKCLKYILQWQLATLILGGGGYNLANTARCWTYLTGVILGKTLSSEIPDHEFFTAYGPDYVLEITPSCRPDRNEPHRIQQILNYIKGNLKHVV

[9] = biological target: T4, Histone deacetylase 7 (Homo sapiens) (UniProt Q8WUI4); test: Inhibition of human recombinant N-terminal histidine-tagged HDAC7 expressed in baculovirus by fluorimetry
T4 sequence (whole entry): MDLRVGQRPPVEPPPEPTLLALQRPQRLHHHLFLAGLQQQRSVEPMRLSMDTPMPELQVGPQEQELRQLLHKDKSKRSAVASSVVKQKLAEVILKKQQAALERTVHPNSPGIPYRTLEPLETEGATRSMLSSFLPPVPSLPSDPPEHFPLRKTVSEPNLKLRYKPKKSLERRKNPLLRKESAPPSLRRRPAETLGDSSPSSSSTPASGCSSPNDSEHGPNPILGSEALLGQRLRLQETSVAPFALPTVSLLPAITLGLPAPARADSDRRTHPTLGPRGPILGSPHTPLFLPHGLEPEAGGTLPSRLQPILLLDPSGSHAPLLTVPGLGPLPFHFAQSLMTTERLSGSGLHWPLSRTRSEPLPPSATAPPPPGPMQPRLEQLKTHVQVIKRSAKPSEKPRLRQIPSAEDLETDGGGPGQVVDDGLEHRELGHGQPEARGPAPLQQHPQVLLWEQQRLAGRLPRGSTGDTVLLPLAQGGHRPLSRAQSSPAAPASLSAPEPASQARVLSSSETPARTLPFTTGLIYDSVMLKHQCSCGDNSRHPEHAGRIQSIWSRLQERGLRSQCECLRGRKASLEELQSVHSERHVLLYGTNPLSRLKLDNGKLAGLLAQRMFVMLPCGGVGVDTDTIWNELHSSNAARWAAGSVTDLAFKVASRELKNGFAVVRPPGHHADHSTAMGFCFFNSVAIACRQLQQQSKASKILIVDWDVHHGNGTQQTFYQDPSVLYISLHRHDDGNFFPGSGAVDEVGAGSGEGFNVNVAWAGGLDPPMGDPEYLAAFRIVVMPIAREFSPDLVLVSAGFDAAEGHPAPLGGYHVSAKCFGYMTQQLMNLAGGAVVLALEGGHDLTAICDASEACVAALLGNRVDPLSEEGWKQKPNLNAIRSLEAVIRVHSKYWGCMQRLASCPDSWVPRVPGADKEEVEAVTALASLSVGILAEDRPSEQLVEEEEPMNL

[10] = biological target: Histone deacetylase 4 (Homo sapiens) (UniProt P56524); test: Inhibition of human recombinant N-terminal histidine-tagged HDAC4 expressed in baculovirus by fluorimetry
Sequence of Histone deacetylase 4 (Homo sapiens) (P56524 whole entry): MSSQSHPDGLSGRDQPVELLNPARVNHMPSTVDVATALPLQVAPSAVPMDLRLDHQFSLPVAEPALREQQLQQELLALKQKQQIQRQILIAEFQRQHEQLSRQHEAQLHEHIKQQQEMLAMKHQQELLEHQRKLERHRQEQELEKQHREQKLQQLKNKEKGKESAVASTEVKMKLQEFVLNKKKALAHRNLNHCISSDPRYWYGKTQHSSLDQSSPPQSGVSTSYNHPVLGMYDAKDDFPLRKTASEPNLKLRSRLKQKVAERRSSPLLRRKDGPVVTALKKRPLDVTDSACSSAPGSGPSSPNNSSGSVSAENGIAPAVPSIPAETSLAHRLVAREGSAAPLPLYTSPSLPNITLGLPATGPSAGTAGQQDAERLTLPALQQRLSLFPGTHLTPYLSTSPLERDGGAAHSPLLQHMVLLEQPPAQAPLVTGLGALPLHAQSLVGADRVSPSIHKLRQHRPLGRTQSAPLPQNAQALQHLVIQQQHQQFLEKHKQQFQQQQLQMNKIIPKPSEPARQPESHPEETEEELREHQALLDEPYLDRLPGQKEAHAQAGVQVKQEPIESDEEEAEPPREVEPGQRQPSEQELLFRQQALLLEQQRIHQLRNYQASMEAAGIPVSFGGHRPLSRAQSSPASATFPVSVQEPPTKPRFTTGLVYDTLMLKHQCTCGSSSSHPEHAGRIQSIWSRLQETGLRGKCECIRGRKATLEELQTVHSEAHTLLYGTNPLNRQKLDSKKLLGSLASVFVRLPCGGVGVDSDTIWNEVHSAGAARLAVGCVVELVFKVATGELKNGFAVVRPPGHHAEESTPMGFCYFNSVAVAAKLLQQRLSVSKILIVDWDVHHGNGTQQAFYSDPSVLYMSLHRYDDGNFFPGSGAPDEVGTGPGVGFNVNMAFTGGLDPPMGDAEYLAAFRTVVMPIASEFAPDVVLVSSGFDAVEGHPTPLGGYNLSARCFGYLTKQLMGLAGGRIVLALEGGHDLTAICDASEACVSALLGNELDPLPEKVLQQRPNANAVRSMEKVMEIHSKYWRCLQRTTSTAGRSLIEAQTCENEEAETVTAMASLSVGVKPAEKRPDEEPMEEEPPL

[11] = biological target: Histone deacetylase 5 (Homo sapiens) (UniProt Q9UQL6); test: Inhibition of human recombinant N-terminal histidine-tagged HDAC5 expressed in baculovirus by fluorimetry
Sequence of Histone deacetylase 5 (Homo sapiens) (Q9UQL6 whole entry): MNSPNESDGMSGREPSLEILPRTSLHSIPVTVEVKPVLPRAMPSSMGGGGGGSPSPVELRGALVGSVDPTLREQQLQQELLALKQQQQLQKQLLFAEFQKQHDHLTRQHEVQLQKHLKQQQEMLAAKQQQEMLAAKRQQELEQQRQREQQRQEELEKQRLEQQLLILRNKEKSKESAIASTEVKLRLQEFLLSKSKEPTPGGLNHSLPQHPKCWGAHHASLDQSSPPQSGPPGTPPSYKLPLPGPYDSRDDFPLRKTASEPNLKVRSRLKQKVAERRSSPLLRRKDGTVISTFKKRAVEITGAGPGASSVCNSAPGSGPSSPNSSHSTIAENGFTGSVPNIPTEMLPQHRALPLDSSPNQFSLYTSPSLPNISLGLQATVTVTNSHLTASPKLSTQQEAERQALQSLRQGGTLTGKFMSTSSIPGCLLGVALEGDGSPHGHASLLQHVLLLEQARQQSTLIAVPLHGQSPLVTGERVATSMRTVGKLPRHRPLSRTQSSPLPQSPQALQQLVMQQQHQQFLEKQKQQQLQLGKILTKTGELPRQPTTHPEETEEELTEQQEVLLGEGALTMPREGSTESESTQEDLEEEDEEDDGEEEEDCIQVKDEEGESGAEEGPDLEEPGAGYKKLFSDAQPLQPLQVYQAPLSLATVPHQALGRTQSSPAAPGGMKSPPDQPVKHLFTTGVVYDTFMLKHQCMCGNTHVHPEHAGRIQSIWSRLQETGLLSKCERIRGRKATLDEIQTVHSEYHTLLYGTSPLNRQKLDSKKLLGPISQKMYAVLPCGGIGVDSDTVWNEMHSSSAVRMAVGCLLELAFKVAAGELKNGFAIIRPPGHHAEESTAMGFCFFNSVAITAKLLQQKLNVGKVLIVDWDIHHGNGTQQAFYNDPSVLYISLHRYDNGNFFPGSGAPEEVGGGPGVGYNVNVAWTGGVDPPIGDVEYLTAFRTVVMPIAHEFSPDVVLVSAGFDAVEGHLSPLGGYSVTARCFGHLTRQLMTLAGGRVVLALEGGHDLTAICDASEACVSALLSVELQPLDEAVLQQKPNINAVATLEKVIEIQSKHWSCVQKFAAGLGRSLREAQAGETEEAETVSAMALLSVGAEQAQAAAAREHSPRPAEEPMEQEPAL

Sequence of Histone deacetylase 2 (Homo sapiens) (Q92769 whole entry): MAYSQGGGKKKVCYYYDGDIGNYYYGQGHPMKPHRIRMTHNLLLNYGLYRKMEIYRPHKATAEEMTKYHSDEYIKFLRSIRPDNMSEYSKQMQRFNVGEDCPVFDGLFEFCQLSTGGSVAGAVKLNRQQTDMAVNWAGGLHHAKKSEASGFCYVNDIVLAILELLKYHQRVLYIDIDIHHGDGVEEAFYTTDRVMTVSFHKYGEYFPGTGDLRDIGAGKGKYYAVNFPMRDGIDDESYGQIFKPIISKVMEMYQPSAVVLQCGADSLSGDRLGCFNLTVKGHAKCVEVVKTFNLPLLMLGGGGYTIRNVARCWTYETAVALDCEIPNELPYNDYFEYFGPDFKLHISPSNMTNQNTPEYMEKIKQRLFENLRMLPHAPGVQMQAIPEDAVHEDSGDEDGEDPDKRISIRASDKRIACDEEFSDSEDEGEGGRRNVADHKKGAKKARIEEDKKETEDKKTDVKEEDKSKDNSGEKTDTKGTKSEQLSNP

Row | SMILES | EC50 [1] [nM] | Activity [2] | IC50 [3] [nM] | IC50 [4] [nM] | EC50 [5] [nM] | IC50 [6] [nM] | Activity [7] | Activity [8] | Activity [9] | Activity [10] | Activity [11]
1 | COc1cc(NC(=O)CCCCCNS(N)(=O)=O)c2ncccc2c1 | 1000 | inactive | > 50000 | 440 | > 25000 | > 10000 | – | – | – | – | –
2 | Nc1ccccc1NC(=O)CCCCCCC(=O)Nc1cccc(-c2ccccc2)c1 | – | – | – | > 50000 | – | 490 | – | – | – | – | –
3 | NS(=O)(=O)NCCCCC(=O)Nc1cccc(-c2ccccc2)c1 | – | – | – | > 10000 | – | > 10000 | inactive | inactive | inactive | inactive | inactive
4 | CN(CCCCCC(=O)Nc1cccc(-c2ccccc2)c1)S(N)(=O)=O | – | – | – | > 10000 | – | > 10000 | inactive | inactive | inactive | inactive | inactive
5 | NS(=O)(=O)OCCCCCC(=O)Nc1cccc(-c2ccccc2)c1 | – | – | – | > 10000 | – | > 10000 | inactive | inactive | inactive | inactive | inactive
6 | CNS(=O)(=O)NCCCCCC(=O)Nc1cccc(-c2ccccc2)c1 | – | – | – | > 10000 | – | > 10000 | inactive | inactive | inactive | inactive | inactive
7 | NS(=O)(=O)NCCCCCCC(=O)Nc1cccc(-c2ccccc2)c1 | – | – | – | > 10000 | – | > 10000 | inactive | inactive | inactive | inactive | inactive
8 | NS(=O)(=O)NCCCC[C@H](NC(=O)OCc1ccccc1)C(=O)Nc1nc(-c2ccccc2)cs1 | 600 | – | 2300 | 180 | 700 | 160 | – | – | – | – | –
9 | O=C(CCCCCCC(=O)Nc1cccc(-c2ccccc2)c1)NO | – | – | – | 9 | – | 9 | – | – | – | – | –
10 | CC(=O)NS(=O)(=O)NCCCCCC(=O)Nc1cccc(-c2ccccc2)c1 | – | – | – | > 10000 | – | > 10000 | inactive | inactive | inactive | inactive | inactive
11 | NS(=O)(=O)NCCCCCC(=O)Nc1ccccc1 | – | – | – | 1500 | – | > 10000 | – | – | – | – | –
12 | NS(=O)(=O)NCCCCCC(=O)Nc1cnc2ccccc2c1 | – | inactive | – | 710 | – | > 10000 | – | – | – | – | –
13 | NS(=O)(=O)NCCCCCC(=O)Nc1ccc2ncccc2c1 | – | inactive | – | 490 | – | > 10000 | – | – | – | – | –
14 | NS(=O)(=O)NC(=O)CCCCCC(=O)Nc1cccc(-c2ccccc2)c1 | – | – | – | > 10000 | – | > 10000 | inactive | inactive | inactive | inactive | inactive
15 | NS(=O)(=O)NCCCCCC(=O)Nc1cccc2cccnc12 | – | inactive | – | 390 | – | > 10000 | – | – | – | – | –
16 | CN(C)S(=O)(=O)NCCCCCC(=O)Nc1cccc(-c2ccccc2)c1 | – | – | – | > 10000 | – | > 10000 | inactive | inactive | inactive | inactive | inactive
17 | NS(=O)(=O)NCCCCCC(=O)Nc1cccc(-c2ccccc2)c1 | – | – | – | 1100 | – | > 10000 | inactive | inactive | inactive | inactive | inactive
18 | COc1cc(NC(=O)[C@H](CCCCNS(N)(=O)=O)NC(=O)OCc2ccccc2)c2ncccc2c1 | 200 | – | 1800 | 60 | 350 | 460 | – | – | – | – | –
19 | NS(=O)(=O)NCCCCCC(=O)Nc1nc(-c2ccccc2)cs1 | 3500 | inactive | > 50000 | 900 | 20000 | > 10000 | – | – | – | – | –
